Source: patent US20240199572A1, “COMPOUNDS, COMPOSITIONS, AND METHODS FOR TREATING TYPE 2 DIABETES AND DEMENTIA” (THE BOARD OF TRUSTEES OF THE UNIVERSITY OF ILLINOIS, priority 2021, published 2024)

What was measured:
LXRβ = target: T1, LXRβ (Homo sapiens, UniProt P55055); test: LanthaScreen TR-FRET coactivator assay LXRβ; type: biochemical
T1 construct: purchased Thermo Fisher Scientific
T1 sequence (P55055 212-460 limits assumed): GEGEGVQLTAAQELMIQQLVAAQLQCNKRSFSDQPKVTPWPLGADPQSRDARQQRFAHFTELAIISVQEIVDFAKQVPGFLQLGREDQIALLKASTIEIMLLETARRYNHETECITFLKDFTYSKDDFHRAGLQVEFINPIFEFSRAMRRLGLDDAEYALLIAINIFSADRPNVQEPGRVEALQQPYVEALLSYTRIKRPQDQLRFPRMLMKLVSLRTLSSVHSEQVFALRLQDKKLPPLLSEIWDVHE

[1] = test system: Nuclear hormone (NHR) receptors; test: All β-gal nuclear hormone receptor (NHR) screens; type: cell-based
Experimental: Receptor Binding Assays. Nuclear hormone (NHR) assays were performed by DiscoverX (Fremont, CA) on their NHR-Scan platform of cell-based protein-protein interaction assays. This platform uses a […] reporter that activates upon interaction of full-length receptor protein with steroid coactivator receptor peptides. In agonist mode, activity of CL2-57 at 10 μM was compared to maximal activity of published positive control agonists; in antagonist mode, reduction in activity with 10 μM CL2-57 from that observed at […] of published agonists was quantified.

PPARγ = target: T2, PPARγ (Homo sapiens, UniProt P37231); test: LanthaScreen TR-FRET coactivator assay PPARγ (antagonism of pioglitazone); type: biochemical
T2 construct: purchased Thermo Fisher Scientific
T2 sequence (P37231 232-505 limits assumed): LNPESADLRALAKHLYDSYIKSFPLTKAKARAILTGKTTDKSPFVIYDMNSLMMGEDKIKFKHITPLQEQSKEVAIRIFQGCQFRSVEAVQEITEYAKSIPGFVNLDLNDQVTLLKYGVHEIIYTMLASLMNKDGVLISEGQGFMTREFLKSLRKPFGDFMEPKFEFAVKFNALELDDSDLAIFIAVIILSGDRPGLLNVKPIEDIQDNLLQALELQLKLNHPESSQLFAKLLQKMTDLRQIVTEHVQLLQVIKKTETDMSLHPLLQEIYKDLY
Experimental: TR-FRET Receptor Binding Assays. LanthaScreen” TR-FRET coactivator assay kits for LXRβ (Thermo Fisher Scientific) and PPARγ (Thermo Fisher Scientific) were performed according to manufacturer instructions using low-binding black 384-well plates and Synergy Neo2 plate reader. For the PPARγ assay, standardization was first performed with control agonist (pioglitazone), then run in two antagonist assays: dose-response of pioglitazone with or without a single concentration of CL2-57, and dose-response of CL2-57 cotreated with a single concentration (500 nM) of pioglitazone. Each compound dose was performed in quadruplicate on each plate, and each experiment was performed in triplicate.

ABCA1 [2] = test: ABCA1 firefly reporter assay in CCF-001 cells; type: cell-based; settings: ABCA1 firefly reporter assay in CCF-001 cells (Table 8)
ABCA1 mRNA = ABCA1 mRNA - HepG2 (qRT-PCR); type: cell-based, human; settings: Homo sapiens; ABCA1 mRNA-HepG2 assay (Table 7)
Source text: qRT-PCR. For cell samples, treated cells were lysed with RLT plus lysis buffer (Qiagen). RNA was isolated with Qiagen RNEASY® Plus columns per manufacturer instructions, then reverse-transcribed to cDNA using […]® III Reverse Transcriptase (200 U/μL, Invitrogen) per supplier protocol. qPCR experiments were either performed with TAQMAN® gene expression master mix (Invitrogen) on a StepOne™ qPCR instrument or with […]® SYBR® Green SuperMix (Quanta Biosciences) on CFX Connect™ Real-Time PCR Detection System (BioRad), with fold-change quantified by ΔΔCt. For animal samples, 100 mg tissue was homogenized in 1 mL acid-guanidinium-phenol based reagent sold under the tradename TRIZOL® (Ambion), mixed vigorously in chloroform, and separated by centrifugation. Aqueous layer containing RNA was added to Qiagen RNEASY® Plus column; remaining stops were as described above for cell lysates.

5×FAD mice = 5×FAD mice treated with CL3-3; type: in vivo, mouse; settings: female 5×FAD mice, 10 mg/kg PO daily, 10 days
Experimental: To evaluate preclinical efficacy, CL3-3 was studied in 5×FAD mice. […] Female 5×FAD mice (JAX) at 16 weeks of age were treated for 10 days with either CL3-3 (10 mg/kg PO gavage daily) or vehicle. Upon completion of treatment, mouse whole brain hemispheres were analyzed for mRNA expression levels of pro-inflammatory markers including CCL2, CCL3, CCL5 CXCL10, IL-6, COX2 and NOS2. Plasma from the same mice was analyzed.

E3/4FAD mice = test: E3/4FAD (EFAD) mice treated with CL3-3; type: in vivo, mouse
Experimental: A longer-term study was conducted in EFAD mice, which express the same five human AD mutations as 5×FAD mice and have also undergone targeted replacement of the mouse Apoe gene with one of the human APOE alleles: ε2, ε3, or ε4. In this study, EFAD mice with heterozygous ε3/ε4 alleles (E3/4FAD) were treated from 4 months of age until 6 months of age with CL3-3 (100 mg/kg/day in hydrogel replacement of drinking water) or vehicle.
Multiple readouts of AD-related pathology were conducted with subsets of these mice. Brain regions were first analyzed via ELISA for levels of soluble, oligomeric Aβ (oAβ), which is hypothesized to be the toxic form of amyloid that underlies downstream pathology and clinical presentation associated with AD. In E3/4FAD mice, oAβ levels decreased in the hippocampus in male mice and in the cerebral cortex in female mice. Treatment with CL3-3 also was synaptoprotective in cerebral cortex regions, particularly in male mice. Expression of synaptic proteins drebrin and PSD95 were increased in male E3/4FAD mice treated with CL3-3, as determined by western blot analysis.
The remaining subset of brain hemispheres from the treated E3/4FAD mice were fixed and analyzed by staining with thioflavin S (Thio-S). Thio-S is a fluorescent dye that binds to abnormally folded protein aggregates (i.e., amyloid).

ABCA1 [3] = test: ABCA1-linked luciferase assay in HepG2 cells; type: cell-based; settings: Homo sapiens; HepG2 liver cells; Example 2, compounds active in ABCA1-Luc assay; read-out: EC50 in HepG2 liver cells
Experimental: Luciferase. HepG2 cells (RRID:CVCL 0027) purchased from ATCC and used without further validation were stably transfected with pGreenFire1-LXRE-in-ABCA1 plasmid, which contains the ABCA1 promoter sequence linked to a luciferase response element, then selected over multiple generations with puromycin and frozen in liquid N2. For assays, transfected cells were plated 24 hours in medium (Gibco) containing charcoal-stripped serum (Gemini), followed by a 24-hour treatment. Cells were lysed with passive lysis buffer (Promega), frozen at −80° C. for 15 minutes, and shaken at room temperature for 2 hours before quantification with luciferase assay system (Promega) on a Synergy Neo2 plate reader.

CD1 mice = test: CD1 mice, three daily p.o. treatments, LXR agonist adverse effects; type: in vivo, mouse; settings: 10 mg/kg p.o., three days
Source text: Neutrophil Counts. […] After final dose, blood samples were run on an Advia 120 analyzer (Bayer) for neutrophil counts.

Structure (SMILES)	EC50 (ABCA1 [2]) [nM]	EC50 (ABCA1 mRNA) [nM]	also measured
CCOc1ccc(N(C)S(=O)(=O)c2cc(Cl)sc2C(=O)Nc2cccc(C(=O)O)c2)cc1OCC [CL2-129, 3-(5-Chloro-3-(N-(3,4-diethoxyphenyl)-N-methylsulfamoyl)thiophene-2-carboxamido)benzoic acid]	–	–	Activity in LXRβ TR-FRET binding assay (LXRβ): inactive; Activity in all of the β-gal screens [1]: inactive; Activity in PPARγ TR-FRET binding assay (PPARγ): inactive
CCOc1ccc(N(C)S(=O)(=O)c2cc(Cl)sc2C(=O)Nc2cccc(C(=O)OCCOC)c2)cc1OCC [CL2-167, 2-Methoxyethyl 3-(5-chloro-3-(N-(3,4-diethoxyphenyl)-N-methylsulfamoyl)thiophene-2-carboxamido) benzoate]	2190	5000	–
CCOc1ccc(N(C)S(=O)(=O)c2cc(Cl)sc2C(=O)Nc2cccc(C(=O)OCCOCCOC)c2)cc1OCC [CL2-168, 2-(2-Methoxyethoxy) ethyl 3-(5-chloro-3-(N-(3,4-diethoxyphenyl)-N-methylsulfamoyl)thiophene-2-carboxamido) benzoate]	1360	3600	–
CCOC(=O)c1cccc(NC(=O)c2sc(Cl)cc2S(=O)(=O)N(C)c2ccc(N(C)C)cc2)c1 [CL2-181, Ethyl 3-(5-chloro-3-(N-(4-(dimethylamino)phenyl)-N-methylsulfamoyl)thiophene-2-carboxamido)benzoate]	4990	5000	–
CCOC(=O)c1cccc(NC(=O)c2sc(Cl)cc2S(=O)(=O)N(C)c2cnc(OCC)c(F)c2)c1 [CL2-184, Ethyl 3-(5-chloro-3-(N-(6-ethoxy-5-fluoropyridin-3-yl)-N-methylsulfamoyl)thiophene-2-carboxamido)benzoate]	4950	4500	–
CCOC(=O)c1cc(Cl)cc(NC(=O)c2sc(Cl)cc2S(=O)(=O)N(C)c2ccc(OCC)c(OCC)c2)c1 [CL2-187, Ethyl 3-chloro-5-(5-chloro-3-(N-(3,4-diethoxyphenyl)-N-methylsulfamoyl)thiophene-2-carboxamido) benzoate]	247	810	–
CCOC(=O)c1cc(N)cc(NC(=O)c2sc(Cl)cc2S(=O)(=O)N(C)c2ccc(OCC)c(OCC)c2)c1 [CL2-191, Ethyl 3-amino-5-(5-chloro-3-(N-(3,4-diethoxyphenyl)-N-methylsulfamoyl)thiophene-2-carboxamido)benzoate]	8420	> 5000	–
O=S(=O)(c1ccccc1)N(CC(F)(F)F)c1ccc(C(O)(C(F)(F)F)C(F)(F)F)cc1 [Compound T0901317, reference compound]	–	–	Circulating neutrophil levels (CD1 mice): reduced; Plasma TG (CD1 mice): increased
CCOC(=O)c1cc(F)cc(NC(=O)c2sc(Cl)cc2S(=O)(=O)N(C)c2ccc(OCC)c(OC)c2)c1 [GR1-053, Ethyl 3-(5-chloro-3-(N-(4-ethoxy-3-methoxyphenyl)-N-methylsulfamoyl)thiophene-2-carboxamido)-5-fluorobenzoate]	29	240	–
CCOc1ccc(N(C)S(=O)(=O)c2cc(Cl)sc2C(=O)Nc2cccc(C(=O)OC)c2)cc1 [KB7-123, Methyl 3-(5-chloro-3-(N-(4-ethoxyphenyl)-N-methylsulfamoyl)thiophene-2-carboxamido)benzoate]	1490	3300	–

Second part, led by results:

EC50 (ABCA1 [2]) [nM]	EC50 (ABCA1 mRNA) [nM]	Structure (SMILES)	also measured
99	300	CCOC(=O)c1cc(Cl)cc(NC(=O)c2sc(Cl)cc2S(=O)(=O)N(C)c2ccc(OCC)c(OC)c2)c1 [CL3-3, Ethyl 3-chloro-5-(5-chloro-3-(N-(4-ethoxy-3-methoxyphenyl)-N-methylsulfamoyl)thiophene-2-carboxamido) benzoate]	Brain mRNA levels of inflammatory markers (CCL2, CCL3, CCL5, CXCL10, IL-6, COX2, NOS2) (5×FAD mice): reduced; Circulating TG levels (5×FAD mice): not significantly altered; % area stained by Thio-S (E3/4FAD mice; all measured brain regions, males and females): decreased; Expression of synaptic proteins drebrin and PSD95 (E3/4FAD mice; male E3/4FAD mice, western blot): increased; EC50 (ABCA1 [3]): 300 nM
530	1200	CCOC(=O)c1cc(Cl)cc(NC(=O)c2sc(Cl)cc2S(=O)(=O)N(C)c2ccc(OC)c(OC)c2)c1 [CL3-9, Ethyl 3-chloro-5-(5-chloro-3-(N-(3,4-dimethoxyphenyl)-N-methylsulfamoyl)thiophene-2-carboxamido)benzoate]	–
339	1100	CCOc1ccc(N(C)S(=O)(=O)c2cc(Cl)sc2C(=O)Nc2cc(Cl)cc(C(=O)OC)c2)cc1OC [CL3-10, Methyl 3-chloro-5-(5-chloro-3-(N-(4-ethoxy-3-methoxyphenyl)-N-methylsulfamoyl)thiophene-2-carboxamido)benzoate]	–
66	420	CCOc1ccc(N(C)S(=O)(=O)c2cc(Cl)sc2C(=O)Nc2cc(Cl)cc(C(=O)OCCOC)c2)cc1OC [CL3-11, 2-Methoxyethyl 3-chloro-5-(5-chloro-3-(N-(4-ethoxy-3-methoxyphenyl)-N-methylsulfamoyl)thiophene-2-carboxamido)benzoate]	–
138	420	CCOc1ccc(N(C)S(=O)(=O)c2cc(Cl)sc2C(=O)Nc2cc(Cl)cc(C(=O)OCCOCCOC)c2)cc1OC [CL3-12, 2-(2-Methoxyethoxy) ethyl 3-chloro-5-(5-chloro-3-(N-(4-ethoxy-3-methoxyphenyl)-N-methylsulfamoyl)thiophene-2-carboxamido)benzoate]	–
